Measurements reported in ChEMBL document CHEMBL6127119 (J Med Chem, 2024).
In brackets after ≈: the same amount, converted by molar mass.

Legend:
Assay type in all cases: functional
Details in all cases: time 16-24 hrs
Staphylococcus aureus [1] = experiment: Antibacterial activity against methicillin-resistant Staphylococcus aureus clinical isolate incubated for 16 to 24 hrs by CLSI based broth microdilution method
Staphylococcus hominis = experiment: Antibacterial activity against methicillin-resistant Staphylococcus hominis clinical isolate incubated for 16 to 24 hrs by CLSI based broth microdilution method
Enterococcus faecium [2] = experiment: Antibacterial activity against vancomycin-resistant Enterococcus faecium harboring VanA phenotype clinical isolate incubated for 16 to 24 hrs by CLSI based broth microdilution method
Enterococcus faecalis = experiment: Antibacterial activity against Enterococcus faecalis clinical isolate incubated for 16 to 24 hrs by CLSI based broth microdilution method
[3] = system: Staphylococcus haemolyticus; experiment: Antibacterial activity against methicillin-resistant Staphylococcus haemolyticus clinical isolate incubated for 16 to 24 hrs by CLSI based broth microdilution method
Enterococcus faecium [4] = experiment: Potency index, ratio of Norvancomycin MIC to test compound MIC for vancomycin-resistant Enterococcus faecium incubated for 16 to 24 hrs by CLSI based broth microdilution method
Klebsiella pneumoniae = experiment: Antibacterial activity against Klebsiella pneumoniae clinical isolate incubated for 16 to 24 hrs by CLSI based broth microdilution method
Escherichia coli [5] = experiment: Potency index, ratio of Norvancomycin MIC to test compound MIC for Escherichia coli […] incubated for 16 to 24 hrs by CLSI based broth microdilution method
Acinetobacter baumannii [6] = experiment: Potency index, ratio of Vancomycin MIC to test compound MIC for Carbapenem-resistant Acinetobacter baumannii clinical isolate incubated for 16 to 24 hrs by CLSI based broth microdilution method
Pseudomonas aeruginosa = experiment: Antibacterial activity against Pseudomonas aeruginosa PAO1 incubated for 16 to 24 hrs by CLSI based broth microdilution method
Staphylococcus aureus [7] = experiment: Antibacterial activity against vancomycin-intermediate Staphylococcus aureus incubated for 16 to 24 hrs by CLSI based broth microdilution method
Enterococcus faecium [8] = experiment: Antibacterial activity against vancomycin-resistant Enterococcus faecium harboring VanA phenotype incubated for 16 to 24 hrs by CLSI based broth microdilution method
Acinetobacter baumannii [9] = experiment: Antibacterial activity against Carbapenem-resistant Acinetobacter baumannii clinical isolate incubated for 16 to 24 hrs by CLSI based broth microdilution method
Enterococcus faecium [10] = experiment: Potency index, ratio of Vancomycin MIC to test compound MIC for vancomycin-resistant Enterococcus faecium incubated for 16 to 24 hrs by CLSI based broth microdilution method
Escherichia coli [11] = experiment: Potency index, ratio of Vancomycin MIC to test compound MIC for Escherichia coli […] incubated for 16 to 24 hrs by CLSI based broth microdilution method
Escherichia coli [12] = experiment: Antibacterial activity against Escherichia coli AB1157 incubated for 16 to 24 hrs by CLSI based broth microdilution method
Enterococcus faecium [13] = experiment: Antibacterial activity against vancomycin-resistant Enterococcus faecium harboring VanM phenotype incubated for 16 to 24 hrs by CLSI based broth microdilution method
Staphylococcus aureus [14] = experiment: Potency index, ratio of Vancomycin MIC to test compound MIC for vancomycin-intermediate Staphylococcus aureus incubated for 16 to 24 hrs by CLSI based broth microdilution method
Staphylococcus aureus [15] = experiment: Antibacterial activity against methicillin-susceptible Staphylococcus aureus incubated for 16 to 24 hrs by CLSI based broth microdilution method
Acinetobacter baumannii [16] = experiment: Potency index, ratio of Norvancomycin MIC to test compound MIC for Carbapenem-resistant Acinetobacter baumannii clinical isolate incubated for 16 to 24 hrs by CLSI based broth microdilution method
Enterococcus faecium [17] = experiment: Antibacterial activity against vancomycin-resistant Enterococcus faecium harboring VanB phenotype incubated for 16 to 24 hrs by CLSI based broth microdilution method
Staphylococcus aureus [18] = experiment: Potency index, ratio of Norvancomycin MIC to test compound MIC for vancomycin-intermediate Staphylococcus aureus incubated for 16 to 24 hrs by CLSI based broth microdilution method
[19] = system: Staphylococcus epidermidis; experiment: Antibacterial activity against methicillin-resistant Staphylococcus epidermidis clinical isolate incubated for 16 to 24 hrs by CLSI based broth microdilution method
Enterococcus faecium [20] = experiment: Antibacterial activity against Enterococcus faecium clinical isolate incubated for 16 to 24 hrs by CLSI based broth microdilution method

SMILES | MIC (Staphylococcus aureus [1]) | MIC (Staphylococcus hominis) | MIC (Enterococcus faecalis) | MIC [3] | Ratio (Enterococcus faecium [4]) | MIC (Klebsiella pneumoniae) | Ratio (Escherichia coli [5]) | Ratio (Acinetobacter baumannii [6]) | MIC (Staphylococcus aureus [7]) | MIC (Enterococcus faecium [8]) | MIC (Acinetobacter baumannii [9]) | Ratio (Enterococcus faecium [10]) | Ratio (Escherichia coli [11]) | MIC (Escherichia coli [12]) | MIC (Enterococcus faecium [13]) | Ratio (Staphylococcus aureus [14]) | MIC (Staphylococcus aureus [15]) | Ratio (Acinetobacter baumannii [16]) | MIC (Enterococcus faecium [17]) | Ratio (Staphylococcus aureus [18]) | also measured
CN[C@H](CC(C)C)C(=O)N[C@H]1C(=O)N[C@@H](CC(N)=O)C(=O)N[C@H]2C(=O)N[C@H]3C(=O)N[C@H](C(=O)N[C@H](C(=O)O)c4cc(O)cc(O)c4-c4cc3ccc4O)[C@H](O)c3ccc(c(Cl)c3)Oc3cc2cc(c3O[C@@H]2O[C@H](CO)[C@@H](O)[C@H](O)[C@H]2O[C@H]2C[C@](C)(N)[C@H](O)[C@H](C)O2)Oc2ccc(cc2Cl)[C@H]1O [VANCOMYCIN] | 0.25 mg/L (≈ 0.173 µM) | 1 mg/L (≈ 0.69 µM) | ≤ 0.03 mg/L | 1 mg/L (≈ 0.69 µM) | – | – | – | – | – | – | – | – | – | – | – | – | – | – | – | – | MIC (Enterococcus faecium [2]): > 64 mg/L
CC(C)C[C@@H](N)C(=O)N[C@H]1C(=O)N[C@@H](CC(N)=O)C(=O)N[C@H]2C(=O)N[C@H]3C(=O)N[C@H](C(=O)N[C@H](C(=O)NCc4ccc(-c5cccc(CNC(=N)N)c5)cc4)c4cc(O)cc(O)c4-c4cc3ccc4O)[C@H](O)c3ccc(c(Cl)c3)Oc3cc2cc(c3O[C@@H]2O[C@H](CO)[C@@H](O)[C@H](O)[C@H]2O[C@H]2C[C@](C)(N)[C@H](O)[C@H](C)O2)Oc2ccc(cc2Cl)[C@H]1O | – | – | – | – | 2 | > 128 mg/L | 2 | 2 | 0.25 mg/L (≈ 0.15 µM) | 2 mg/L (≈ 1.2 µM) | 64 mg/L (≈ 38.3 µM) | 2 | 2 | 16 mg/L (≈ 9.57 µM) | 1 mg/L (≈ 0.598 µM) | 2 | ≤ 0.063 mg/L | 2 | 2 mg/L (≈ 1.2 µM) | 2 | MIC (Pseudomonas aeruginosa): 128 mg/L (≈ 76.6 µM)
CC(C)C[C@@H](N)C(=O)N[C@H]1C(=O)N[C@@H](CC(N)=O)C(=O)N[C@H]2C(=O)N[C@H]3C(=O)N[C@H](C(=O)N[C@H](C(=O)NCc4ccc(-c5ccc(CCNC(=N)N)cc5)cc4)c4cc(O)cc(O)c4-c4cc3ccc4O)[C@H](O)c3ccc(c(Cl)c3)Oc3cc2cc(c3O[C@@H]2O[C@H](CO)[C@@H](O)[C@H](O)[C@H]2O[C@H]2C[C@](C)(N)[C@H](O)[C@H](C)O2)Oc2ccc(cc2Cl)[C@H]1O | – | – | – | – | 2 | > 128 mg/L | 2 | 2 | 0.5 mg/L (≈ 0.297 µM) | 4 mg/L (≈ 2.37 µM) | 64 mg/L (≈ 38 µM) | 2 | 2 | 8 mg/L (≈ 4.75 µM) | 2 mg/L (≈ 1.19 µM) | 2 | 0.125 mg/L (≈ 0.0742 µM) | 2 | 4 mg/L (≈ 2.37 µM) | 2 | MIC (Pseudomonas aeruginosa): > 128 mg/L
CN[C@H](CC(C)C)C(=O)N[C@H]1C(=O)N[C@@H](CC(N)=O)C(=O)N[C@H]2C(=O)N[C@H]3C(=O)N[C@H](C(=O)N[C@H](C(=O)O)c4cc(O)cc(O)c4-c4cc3ccc4O)[C@H](O[C@H]3C[C@](C)(N)[C@@H](O)[C@H](C)O3)c3ccc(c(Cl)c3)Oc3cc2cc(c3O[C@@H]2O[C@H](CO)[C@@H](O)[C@H](O)[C@H]2O[C@H]2C[C@](C)(NCc3ccc(-c4ccc(Cl)cc4)cc3)[C@@H](O)[C@H](C)O2)Oc2ccc(cc2Cl)[C@H]1O [ORITAVANCIN] | 0.12 mg/L (≈ 0.0669 µM) | 0.12 mg/L (≈ 0.0669 µM) | ≤ 0.03 mg/L | 0.06 mg/L (≈ 0.0335 µM) | – | – | – | – | – | – | – | – | – | – | – | – | – | – | – | – | MIC [19]: 0.12 mg/L (≈ 0.0669 µM); MIC (Enterococcus faecium [20]): ≤ 0.03 mg/L
CN[C@H](CC(C)C)C(=O)N[C@H]1C(=O)N[C@@H](CC(N)=O)C(=O)N[C@H]2C(=O)N[C@H]3C(=O)N[C@H](C(=O)N[C@H](C(=O)NCCc4ccc(-c5ccc(CNC(=N)N)cc5)cc4)c4cc(O)cc(O)c4-c4cc3ccc4O)[C@H](O)c3ccc(c(Cl)c3)Oc3cc2cc(c3O[C@@H]2O[C@H](CO)[C@@H](O)[C@H](O)[C@H]2O[C@H]2C[C@](C)(N)[C@H](O)[C@H](C)O2)Oc2ccc(cc2Cl)[C@H]1O | – | – | – | – | 2 | > 128 mg/L | 2 | 2 | 0.5 mg/L (≈ 0.294 µM) | 2 mg/L (≈ 1.18 µM) | 64 mg/L (≈ 37.7 µM) | 2 | 2 | 8 mg/L (≈ 4.71 µM) | 2 mg/L (≈ 1.18 µM) | 2 | 0.125 mg/L (≈ 0.0735 µM) | 2 | 4 mg/L (≈ 2.35 µM) | 2 | –
